From publication PMC8213057, “Targeting ALK2: An Open Science Approach to Developing Therapeutics for the Treatment of Diffuse Intrinsic Pontine Glioma” (Journal of Medicinal Chemistry, 2020)

Legend:
AXL = molecular target: T1, AXL (Homo sapiens, UniProt P30530); assay: biochemical; conditions: read-out: % enzyme activity, 1 μM; Run 1, Run 2
T1 sequence (P30530 26-894): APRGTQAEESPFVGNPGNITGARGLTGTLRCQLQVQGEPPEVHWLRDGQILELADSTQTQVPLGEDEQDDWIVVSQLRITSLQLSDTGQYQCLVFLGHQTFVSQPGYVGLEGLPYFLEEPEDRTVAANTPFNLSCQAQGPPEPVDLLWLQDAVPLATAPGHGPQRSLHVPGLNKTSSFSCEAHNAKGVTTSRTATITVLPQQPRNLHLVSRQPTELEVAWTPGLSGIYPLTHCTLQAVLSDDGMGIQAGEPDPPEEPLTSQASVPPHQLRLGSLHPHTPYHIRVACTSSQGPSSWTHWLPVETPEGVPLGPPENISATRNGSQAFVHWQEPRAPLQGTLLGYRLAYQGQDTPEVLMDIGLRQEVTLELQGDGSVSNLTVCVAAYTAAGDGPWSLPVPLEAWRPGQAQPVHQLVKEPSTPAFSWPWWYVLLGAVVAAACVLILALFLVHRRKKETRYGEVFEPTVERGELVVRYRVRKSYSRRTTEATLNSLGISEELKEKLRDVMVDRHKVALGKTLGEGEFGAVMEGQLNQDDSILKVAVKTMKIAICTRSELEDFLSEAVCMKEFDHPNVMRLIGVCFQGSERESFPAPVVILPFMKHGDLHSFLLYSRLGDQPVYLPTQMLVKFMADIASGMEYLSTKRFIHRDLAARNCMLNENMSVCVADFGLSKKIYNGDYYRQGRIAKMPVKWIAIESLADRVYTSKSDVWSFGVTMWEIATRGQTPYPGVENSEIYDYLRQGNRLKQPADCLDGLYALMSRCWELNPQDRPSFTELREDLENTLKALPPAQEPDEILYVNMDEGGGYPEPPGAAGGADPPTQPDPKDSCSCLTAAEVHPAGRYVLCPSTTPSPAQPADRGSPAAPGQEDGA

FES/FPS = FES/FPS (Homo sapiens, UniProt P07332); conditions: 1 μM; Run 1, Run 2
Chain of FES/FPS (P07332 whole entry): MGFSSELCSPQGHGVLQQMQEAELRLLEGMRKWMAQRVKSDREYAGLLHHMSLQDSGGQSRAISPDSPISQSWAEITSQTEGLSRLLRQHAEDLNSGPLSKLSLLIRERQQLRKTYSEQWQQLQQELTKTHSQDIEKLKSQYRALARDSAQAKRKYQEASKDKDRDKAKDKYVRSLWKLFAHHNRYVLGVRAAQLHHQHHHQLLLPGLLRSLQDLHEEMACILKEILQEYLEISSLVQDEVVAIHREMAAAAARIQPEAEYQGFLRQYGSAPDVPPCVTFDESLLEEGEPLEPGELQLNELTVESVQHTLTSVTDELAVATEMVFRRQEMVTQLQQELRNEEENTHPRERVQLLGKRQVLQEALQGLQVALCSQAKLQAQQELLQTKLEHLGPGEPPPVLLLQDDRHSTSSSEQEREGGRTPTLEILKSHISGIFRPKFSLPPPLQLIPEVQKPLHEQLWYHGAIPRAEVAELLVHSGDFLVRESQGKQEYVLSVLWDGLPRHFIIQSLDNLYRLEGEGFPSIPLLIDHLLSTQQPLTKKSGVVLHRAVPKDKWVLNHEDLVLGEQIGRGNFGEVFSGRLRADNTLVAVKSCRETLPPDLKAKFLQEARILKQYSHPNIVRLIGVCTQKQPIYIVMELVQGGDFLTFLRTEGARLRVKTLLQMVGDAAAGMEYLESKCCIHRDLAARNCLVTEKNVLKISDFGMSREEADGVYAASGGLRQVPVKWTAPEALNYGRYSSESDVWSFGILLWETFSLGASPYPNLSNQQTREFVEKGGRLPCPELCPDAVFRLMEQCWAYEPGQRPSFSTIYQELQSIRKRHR

BMPR2 = molecular target: T2, BMPR2 (Homo sapiens, UniProt Q13873); assay: 375-member kinase panel; format: biochemical; conditions: Run 1, Run 2; for % enzyme activity: 1 μM; for remaining activity at 1 µM: read-out: % enzyme activity, 1 μM
T2 construct: purchased Reaction Biology Corporation
T2 sequence (Q13873 27-1038): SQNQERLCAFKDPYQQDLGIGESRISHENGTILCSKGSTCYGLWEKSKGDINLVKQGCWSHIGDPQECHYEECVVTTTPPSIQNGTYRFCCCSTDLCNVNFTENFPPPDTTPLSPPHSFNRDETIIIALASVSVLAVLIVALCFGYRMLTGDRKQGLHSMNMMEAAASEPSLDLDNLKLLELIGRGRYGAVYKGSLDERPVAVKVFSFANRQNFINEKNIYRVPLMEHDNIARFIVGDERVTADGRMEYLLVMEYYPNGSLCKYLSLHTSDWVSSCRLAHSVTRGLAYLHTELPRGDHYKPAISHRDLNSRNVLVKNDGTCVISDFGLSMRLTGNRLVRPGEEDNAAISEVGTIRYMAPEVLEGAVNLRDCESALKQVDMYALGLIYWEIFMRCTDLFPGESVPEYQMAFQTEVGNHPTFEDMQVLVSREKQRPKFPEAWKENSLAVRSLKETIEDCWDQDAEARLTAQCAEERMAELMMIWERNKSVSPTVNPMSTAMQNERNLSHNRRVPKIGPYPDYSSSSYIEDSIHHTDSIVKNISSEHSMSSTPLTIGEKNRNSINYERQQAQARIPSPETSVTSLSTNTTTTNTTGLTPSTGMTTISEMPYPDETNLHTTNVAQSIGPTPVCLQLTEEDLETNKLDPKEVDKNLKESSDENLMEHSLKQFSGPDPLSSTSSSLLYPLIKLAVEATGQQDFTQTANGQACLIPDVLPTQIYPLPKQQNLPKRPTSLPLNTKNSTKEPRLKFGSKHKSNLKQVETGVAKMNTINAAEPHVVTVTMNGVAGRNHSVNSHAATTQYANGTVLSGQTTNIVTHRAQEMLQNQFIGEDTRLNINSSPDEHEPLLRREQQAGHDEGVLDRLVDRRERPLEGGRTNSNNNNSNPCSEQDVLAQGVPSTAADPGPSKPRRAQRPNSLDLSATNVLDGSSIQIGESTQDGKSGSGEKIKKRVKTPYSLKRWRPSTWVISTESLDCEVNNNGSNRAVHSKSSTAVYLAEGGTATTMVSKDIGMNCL

ZAP70 = molecular target: T3, ZAP70 (Homo sapiens, UniProt P43403); conditions: 1 μM; Run 1, Run 2
T3 sequence (P43403 1-619): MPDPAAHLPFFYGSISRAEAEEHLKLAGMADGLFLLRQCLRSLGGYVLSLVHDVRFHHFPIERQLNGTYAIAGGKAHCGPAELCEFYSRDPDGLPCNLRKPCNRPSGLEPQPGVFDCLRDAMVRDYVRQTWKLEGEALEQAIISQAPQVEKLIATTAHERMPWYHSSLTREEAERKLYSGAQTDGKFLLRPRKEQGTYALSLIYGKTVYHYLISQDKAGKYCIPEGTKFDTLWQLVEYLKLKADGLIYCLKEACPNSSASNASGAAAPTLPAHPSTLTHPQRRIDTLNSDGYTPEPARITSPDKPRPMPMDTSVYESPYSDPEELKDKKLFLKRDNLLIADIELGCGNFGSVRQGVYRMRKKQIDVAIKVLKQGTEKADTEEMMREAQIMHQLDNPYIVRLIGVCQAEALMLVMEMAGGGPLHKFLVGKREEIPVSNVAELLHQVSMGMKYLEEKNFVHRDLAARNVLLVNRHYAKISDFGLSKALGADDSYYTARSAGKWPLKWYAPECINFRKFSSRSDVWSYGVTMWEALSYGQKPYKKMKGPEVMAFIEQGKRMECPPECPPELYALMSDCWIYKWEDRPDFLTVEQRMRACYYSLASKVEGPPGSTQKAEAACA

Row | Structure (SMILES) | remaining activity at 1 µM (AXL) | % enzyme activity (FES/FPS) | % enzyme activity (BMPR2) | remaining activity at 1 µM (BMPR2) | % enzyme activity (ZAP70)
1 | COc1cc(-c2cncc(-c3ccc(N4CCN(C)CC4)cc3)c2C)cc(F)c1C(N)=O [Compound 26a, 2-Fluoro-6-methoxy-4-(4-methyl-5-(4-(4-methylpiperazin-1-yl)phenyl)pyridin-3-yl)benzamide] | 81.8% | 99.20% | 88.40% | 89.1% | 94.79%
2 | COc1cc(-c2cncc(-c3ccc(N4C[C@@H](C)N(C)[C@@H](C)C4)cc3)c2C)cc(F)c1C(N)=O [Compound 26c, 2-Fluoro-6-methoxy-4-(4-methyl-5-(4-((3R,5S)-3,4,5-trimethylpiperazin-1-yl)phenyl)pyridin-3-yl)benzamide] | 91.3% | 98.66% | 100.11% | 104% | 98.47%
